The assay relates to Methicillin-Resistant Staphylococcus Aureus (MRSA). The assay is described as follows: MRSA bacteriocidal effects in combination with oxacillin. It counts as cell-based. Further details: concentration or dose not given beside the values.

The structures appear in SMILES notation.

For `Cc1onc(-c2ccccc2)c1C(=O)N[C@@H]1C(=O)N2[C@@H]1SC(C)(C)[C@@H]2C(=O)O` [Drug, oxacillin], the “Percentage of plates with no growth” value is 16.67% (0 min); 0.00% (30 min); 0.00% (120 min); 0.00% (240 min); 0.00% (480 min); 0.00% (1080 min). The “Percentage of plates with no growth” value (1440 min) was 0.00%.

For the origin of these results see US8784898B2, “Methods of wound care and treatment” (Revalesio Corporation, priority 2006, dated 2014).
